The values that follow come from PMC3873546, “Two Distinct Determinants of Ligand Specificity in T1R1/T1R3 (the Umami Taste Receptor)” (The Journal of Biological Chemistry, 2013).

Experiment [1] has as its target T1, squirrel monkey T1R1 (with mT1R3) (Saimiri boliviensis, UniProt A0A2K6TN71).
T1 construct: full-length squirrel monkey T1R1 assembled from genomic exons (liver DNA); HEK293T with mouse T1R3; with Taste receptor type 1 member 3 (Mus musculus)
T1 sequence (A0A2K6TN71 21-841): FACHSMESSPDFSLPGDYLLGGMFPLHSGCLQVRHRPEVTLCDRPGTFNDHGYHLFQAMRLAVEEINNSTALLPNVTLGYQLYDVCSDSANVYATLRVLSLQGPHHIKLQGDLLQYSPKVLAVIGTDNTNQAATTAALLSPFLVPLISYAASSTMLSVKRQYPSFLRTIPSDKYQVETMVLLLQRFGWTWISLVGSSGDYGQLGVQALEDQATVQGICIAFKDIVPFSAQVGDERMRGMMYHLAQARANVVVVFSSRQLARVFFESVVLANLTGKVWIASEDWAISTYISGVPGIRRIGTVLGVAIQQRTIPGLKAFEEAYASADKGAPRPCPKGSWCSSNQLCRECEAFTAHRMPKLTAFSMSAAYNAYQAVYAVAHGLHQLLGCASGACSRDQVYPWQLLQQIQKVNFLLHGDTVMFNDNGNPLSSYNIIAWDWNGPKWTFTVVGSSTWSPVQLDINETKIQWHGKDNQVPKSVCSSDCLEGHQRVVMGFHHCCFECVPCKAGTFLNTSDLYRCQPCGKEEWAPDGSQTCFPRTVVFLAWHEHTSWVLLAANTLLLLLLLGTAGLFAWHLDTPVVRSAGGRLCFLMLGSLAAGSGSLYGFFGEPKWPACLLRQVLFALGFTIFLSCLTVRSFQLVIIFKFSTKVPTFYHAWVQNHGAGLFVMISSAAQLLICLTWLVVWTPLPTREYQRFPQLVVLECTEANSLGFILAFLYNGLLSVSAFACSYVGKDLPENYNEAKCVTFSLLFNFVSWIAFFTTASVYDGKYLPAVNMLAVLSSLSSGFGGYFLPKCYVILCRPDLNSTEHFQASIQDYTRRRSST
T1 sequence (Q925D8 21-858 partner): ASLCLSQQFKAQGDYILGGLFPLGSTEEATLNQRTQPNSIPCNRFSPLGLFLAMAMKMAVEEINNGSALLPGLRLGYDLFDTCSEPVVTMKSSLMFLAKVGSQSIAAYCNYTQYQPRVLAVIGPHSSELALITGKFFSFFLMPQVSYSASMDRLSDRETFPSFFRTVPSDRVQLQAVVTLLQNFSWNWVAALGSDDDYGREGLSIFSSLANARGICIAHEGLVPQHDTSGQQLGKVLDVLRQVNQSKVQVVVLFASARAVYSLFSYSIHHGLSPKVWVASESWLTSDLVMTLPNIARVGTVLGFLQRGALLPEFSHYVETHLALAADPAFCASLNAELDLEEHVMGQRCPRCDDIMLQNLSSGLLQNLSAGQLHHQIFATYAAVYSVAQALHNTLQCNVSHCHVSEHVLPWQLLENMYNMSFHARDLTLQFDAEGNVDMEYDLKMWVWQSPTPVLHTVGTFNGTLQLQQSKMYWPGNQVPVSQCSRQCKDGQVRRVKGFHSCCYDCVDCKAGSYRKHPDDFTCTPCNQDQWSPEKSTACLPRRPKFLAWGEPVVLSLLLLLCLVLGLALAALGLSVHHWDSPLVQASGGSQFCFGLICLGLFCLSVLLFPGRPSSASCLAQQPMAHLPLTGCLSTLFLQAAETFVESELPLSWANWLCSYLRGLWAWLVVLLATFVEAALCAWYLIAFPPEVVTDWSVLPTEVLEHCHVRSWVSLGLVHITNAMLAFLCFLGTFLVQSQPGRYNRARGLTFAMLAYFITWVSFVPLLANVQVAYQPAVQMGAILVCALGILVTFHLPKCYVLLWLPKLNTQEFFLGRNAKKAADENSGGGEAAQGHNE
The experiment in a line: mt-clytin-II Ca2+ luminescence, HEK293T. Type of experiment: cell-based. The following applies: dose-response curve only, pH 7.4, no IMP.

A further experiment has as its target T2, hT1R1/mT1R3 (Homo sapiens, UniProt Q7RTX1).
T2 construct: gene TAS1R1; mixed-species heteromer, full-length human T1R1 (841 residues) with mouse T1R3, pEAK10, HEK293T with rG15i2 and mt-apoclytin-II; with Taste receptor type 1 member 3 (Mus musculus)
T2 sequence (Q7RTX1 21-841): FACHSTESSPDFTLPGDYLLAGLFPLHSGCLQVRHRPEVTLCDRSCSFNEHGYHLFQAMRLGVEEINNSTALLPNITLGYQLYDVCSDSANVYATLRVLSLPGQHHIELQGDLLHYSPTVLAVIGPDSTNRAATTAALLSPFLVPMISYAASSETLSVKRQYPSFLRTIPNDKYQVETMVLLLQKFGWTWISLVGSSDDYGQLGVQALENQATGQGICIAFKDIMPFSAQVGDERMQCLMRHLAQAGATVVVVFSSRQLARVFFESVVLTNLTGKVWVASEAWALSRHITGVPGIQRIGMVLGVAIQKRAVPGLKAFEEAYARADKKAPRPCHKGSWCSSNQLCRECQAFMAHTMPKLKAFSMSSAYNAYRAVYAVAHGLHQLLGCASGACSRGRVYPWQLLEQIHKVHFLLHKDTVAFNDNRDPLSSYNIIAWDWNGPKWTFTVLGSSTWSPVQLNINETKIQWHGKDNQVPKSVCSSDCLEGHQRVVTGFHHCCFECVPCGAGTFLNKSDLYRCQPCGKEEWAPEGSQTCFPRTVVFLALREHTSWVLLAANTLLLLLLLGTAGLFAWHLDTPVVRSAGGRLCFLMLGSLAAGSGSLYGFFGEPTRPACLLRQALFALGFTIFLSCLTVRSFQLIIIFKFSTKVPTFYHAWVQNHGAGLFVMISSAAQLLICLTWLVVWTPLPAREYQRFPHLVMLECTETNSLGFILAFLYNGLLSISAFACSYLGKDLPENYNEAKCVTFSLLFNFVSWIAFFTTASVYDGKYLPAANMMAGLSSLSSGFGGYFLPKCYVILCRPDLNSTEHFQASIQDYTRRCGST
T2 sequence (Q925D8 21-858 partner): T1 sequence (Q925D8 21-858 partner)
The experiment in a line: mt-clytin-II Ca2+ luminescence, HEK293T. The note with it: dose-response curve and 50 mM response, pH 7.4, no IMP; weak agonist. It is filed as cell-based.

For experiment [2], the system named is T3, hT1R1(m.371–380) (with mT1R3).
T3 construct: gene TAS1R1
The note with it: pH 7.4, rG15i2, no IMP; orthosteric site agonist.

In the next experiment the test system is T4, baboon T1R1 (with mT1R3).
T4 construct: gene TAS1R1
The note with it: pH 7.4, rG15i2, no IMP; orthosteric site agonist.

On to `C[C@H](N)C(=O)O` [L-Ala], for which the “mt-clytin-II Ca2+ luminescence, HEK293T” value is on record as “the squirrel monkey T1R1 demonstrated the greatest L-Ala potency among the four primate T1R1 receptors” in experiment [1] and “the dose-response curves of human (B), macaque (C), baboon (D)” on hT1R1/mT1R3.

Regarding `N[C@@H](CCC(=O)O)C(=O)O` [L-Glu], the values for the EC50 (in experiment [2]; with baboon T1R1 (with mT1R3)) were 110 ± 10 µM and 1800 ± 400 µM, respectively.
